Laboratory results taken from patent publication US20250059195A1, “TRIAZOLONE DERIVATIVE SALT AS NEUTROPHIL ELASTASE INHIBITOR” (CHIESI FARMACEUTICI S.P.A., priority 2021, published 2025).
Read-outs that look alike come from different tables or passages of the source.

Assays:
[1] = rat, in vivo
Description: (§1) Male Wistar rats were dosed by the snout-only inhalation route with (2-{5-Cyano-2-[(R)-6-methoxycarbonyl-7-methyl-3-oxo-8-(3-trifluoromethyl-phenyl)-2,3,5,8-tetrahydro-[1,2,4]triazolo[4,3-a]pyrimidin-5-yl]-phenyl}-ethyl)-trimethyl-ammonium methanesulfonate salt (described in WO 2014/095700), (2-{5-Cyano-2-[(R)-6-methoxycarbonyl-7-methyl-3-oxo-8-(3-trifluoromethyl-phenyl)-2,3,5,8-tetrahydro-[1,2,4]triazolo[4,3-a]pyrimidin-5-yl]-phenyl}-ethyl)-trimethyl-ammonium xinafoate salt (I) and (2-{5-Cyano-2-[(R)-6-methoxycarbonyl-7-methyl-3-oxo-8-(3-trifluoromethyl-phenyl)-2,3,5,8-tetrahydro-[1,2,4]triazolo[4,3-a]pyrimidin-5-yl]-phenyl}-ethyl)-trimethyl-ammonium acetate salt (which is described in WO 2014/095700), (2-{5-Cyano-2-[(R)-6-methoxycarbonyl-7-methyl-3-oxo-8-(3-trifluoromethyl-phenyl)-2,3,5,8-tetrahydro-[1,2,4]triazolo[4,3-a]pyrimidin-5-yl]-phenyl}-ethyl)-trimethyl-ammonium bromide salt (whose synthesis is described in WO 2014/095700) or lactose (vehicle) given as dry powder formulations. The duration of aerosol exposure was of 60 minutes. On the day of dosing, animals were placed into the plethysmograph tubes for at least 30 minutes prior to dosing and respiratory parameters: respiratory rate, tidal volume, and PenH were continuously recorded for at least 30 minutes pre-dose, 60 minutes during dosing (exposure) and 90 minutes post-exposure. The respiratory parameters were recorded every minute for a total period of 3 hours using the EMMS eDacq system (PLY231, EMMS, Bordon, United Kingdom).

[2] = Head-out plethysmography (HOP) assay, lung function parameters; conditions: rats, dry powder snout-only inhalation
Description: as §1

[3] = target: T1, human neutrophil elastase (HNE) (Homo sapiens, UniProt P08246); assay: HNE-induced lung injury assay (BAL fluid haemoglobin content); format: in vivo, rat; conditions: for % Inhibition at 300 μg/Kg (inhibition of HNE-induced haemoglobin content in BALF) / % Inhibition at 600 μg/Kg (inhibition of HNE-induced haemoglobin content in BALF): male Sprague Dawley rats, dry powder nose-only inhalation 3 hours prior to HNE i.t. 100 U/rat, vs HNE-treated vehicle control; for % Inhibition at 300 μg/Kg (inhibition of HNE-induced haemoglobin content in BALF): 300 μg/Kg (0.3 mg/kg); for % Inhibition at 600 μg/Kg (inhibition of HNE-induced haemoglobin content in BALF): 600 μg/Kg (0.6 mg/kg); for inhibition of BAL fluid haemoglobin content, dose dependence: inhalation as dry powder formulation at 0.03, 0.3 and 0.6 mg/kg
T1 sequence (P08246 30-267): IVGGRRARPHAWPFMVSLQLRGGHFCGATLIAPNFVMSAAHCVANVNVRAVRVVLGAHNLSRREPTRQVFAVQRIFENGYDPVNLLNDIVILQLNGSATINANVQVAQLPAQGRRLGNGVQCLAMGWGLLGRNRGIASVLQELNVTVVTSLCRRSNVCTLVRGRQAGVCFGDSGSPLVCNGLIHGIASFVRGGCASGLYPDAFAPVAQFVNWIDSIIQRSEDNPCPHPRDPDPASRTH
Description: Then, one hour after the PBS or HNE administration animals were sacrificed and bronchoalveolar lavage (BAL) was performed in order to assess the HNE-induced lung injury measured as haemoglobin concentration.
BAL fluid samples were centrifuged at 800 g for 15 min at 4° C. The supernatant was collected and the pellet was re-suspended in 3 mL of distilled water. A standard curve with known volumes of lysated blood cells was made from a stem solution of lysated blood cells. 150 μL of standards and samples were transferred in duplicate to a 96-well plate and the OD measured at 412 nm.
Percentage of compound efficacy (assessed as inhibition of HNE-induced haemoglobin content in BALF) was calculated following this formula: 100−[(mean of haemoglobin concentration of test compound treated rats exposed to HNE)−(mean of haemoglobin concentration of vehicle treated rats exposed to PBS)]/[(mean of haemoglobin concentration of vehicle treated rats exposed to HNE)−(mean of haemoglobin concentration of vehicle treated rats exposed to PBS)]×100.

[4] = Solubility in water of different salts; format: physicochemical; conditions: water at RT
Description: The complete dissolution of the material was visually observed. […] From this experiment the xinafoate salt has a solubility lower than 0.05 mg/ml.

[5] = male, Wistar, 0.6 mg/kg, 60 min

CC(=O)[O-].COC(=O)C1=C(C)N(c2cccc(C(F)(F)F)c2)c2n[nH]c(=O)n2[C@@H]1c1ccc(C#N)cc1CC[N+](C)(C)C [Acetate, (2-{5-Cyano-2-[(R)-6-methoxycarbonyl-7-methyl-3-oxo-8-(3-trifluoromethyl-phenyl)-2,3,5,8-tetrahydro-[1,2,4]triazolo[4,3-a]pyrimidin-5-yl]-phenyl}-ethyl)-trimethyl-ammonium acetate salt]
increase in PenH area ([1]; male, Wistar, 7 mg/kg, 60 min): about 9 fold
increase in respiratory rate, maximum effect vs vehicle ([1]; male, Wistar, 7 mg/kg, 60 min): 51%
reduced tidal volume, maximum decrease vs vehicle control ([1]; male, Wistar, 7 mg/kg, 60 min): 50%
% of Reduction of tidal volume at the highest tested dose ([1]; male, Wistar, 60 min): 50%

COC(=O)C1=C(C)N(c2cccc(C(F)(F)F)c2)c2n[nH]c(=O)n2[C@@H]1c1ccc(C#N)cc1CC[N+](C)(C)C.[Br-] [Bromide, (2-{5-Cyano-2-[(R)-6-methoxycarbonyl-7-methyl-3-oxo-8-(3-trifluoromethyl-phenyl)-2,3,5,8-tetrahydro-[1,2,4]triazolo[4,3-a]pyrimidin-5-yl]-phenyl}-ethyl)-trimethyl-ammonium bromide salt]
increase in PenH area compared to vehicle ([2]; high dose (5.5 mg/kg)): ~20 fold
reduction in tidal volume, maximum vs vehicle ([2]; high dose (5.5 mg/kg), during inhalation): 38%
increase in PenH area compared to vehicle ([2]; low dose (0.55 mg/kg)): about 8 fold
increase in respiratory rate, maximum effect vs vehicle ([2]; low dose (0.55 mg/kg), during inhalation): 59%
% of Reduction of tidal volume at the highest tested dose ([2]; peak effect vs vehicle (lactose)): 38%

COC(=O)C1=C(C)N(c2cccc(C(F)(F)F)c2)c2n[nH]c(=O)n2[C@@H]1c1ccc(C#N)cc1CC[N+](C)(C)C.CS(=O)(=O)[O-] [Methanesulfonate, (2-{5-Cyano-2-[(R)-6-methoxycarbonyl-7-methyl-3-oxo-8-(3-trifluoromethyl-phenyl)-2,3,5,8-tetrahydro-[1,2,4]triazolo[4,3-a]pyrimidin-5-yl]-phenyl}-ethyl)-trimethyl-ammonium methanesulfonate]
% Inhibition at 300 μg/Kg (inhibition of HNE-induced haemoglobin content in BALF) [3]: 20%
% Inhibition at 600 μg/Kg (inhibition of HNE-induced haemoglobin content in BALF) [3]: 25%
inhibition of BAL fluid haemoglobin content, dose dependence ([3]; rats): dose-dependent inhibition
increase of PenH compared to vehicle group [1, 5]: about 8 fold
increase of respiratory rate, peak effect vs vehicle (lactose) [1, 5]: 32%
reduction of tidal volume, peak effect vs vehicle [1, 5]: 35%
increase of PenH compared to vehicle group ([1]; male, Wistar, 6 mg/kg, 60 min): ~16 fold
increase of respiratory rate, peak effect vs vehicle (lactose) ([1]; male, Wistar, 6 mg/kg, 60 min): 54%
reduction of tidal volume, peak effect vs vehicle ([1]; male, Wistar, 6 mg/kg, 60 min): 39%
% of Reduction of tidal volume at the highest tested dose ([1]; male, Wistar, 60 min): 35-39%

COC(=O)C1=C(C)N(c2cccc(C(F)(F)F)c2)c2n[nH]c(=O)n2[C@@H]1c1ccc(C#N)cc1CC[N+](C)(C)C [Xinafoate, (2-{5-Cyano-2-[(R)-6-methoxycarbonyl-7-methyl-3-oxo-8-(3-trifluoromethyl-phenyl)-2,3,5,8-tetrahydro-[1,2,4]triazolo[4,3-a]pyrimidin-5-yl]-phenyl}-ethyl)-trimethyl-ammonium xinafoate]
solubility ([4]; thermodynamic from solid, read-out: Solubility (mg/ml) in water): < 0.05 mg/mL
Solubility (mg/ml) in water [4]: <0.05 mg/mL
% Inhibition at 300 μg/Kg (inhibition of HNE-induced haemoglobin content in BALF) [3]: 35%
% Inhibition at 600 μg/Kg (inhibition of HNE-induced haemoglobin content in BALF) [3]: 80%
efficacy in inhibiting HNE in vivo, comparison of the salts ([3]; rats, dry powder inhalation): superior efficacy than the methanesulfonate salt
inhibition of BAL fluid haemoglobin content, dose dependence ([3]; rats): dose-dependent inhibition
% of Reduction of tidal volume at the highest tested dose [1]: No variation of any lung function parameters
